What was measured:
[1] = system: types of fish common in aquariums (acute toxicity of ammonia); experiment: Behavior of aquarium fish in water with 1000 μmol/l of total ammonia, with and without preparation; format: in vivo; details: for reduction of the acute toxicity of ammonia in water animals, in particular ornamental fish: in vivo
From the text: In aquariums holding 50 liters, the aquarium water was set to the following values:
Metered addition of a NH4Cl solution set to pH 8.2 predetermined a total ammonia concentration of 1000 μmol/l.
The aquariums were stocked with types of fish common in aquariums: • Xiphosphorus maculatus • Brachydanio rerio • Paracheirodon innesi • Rasbora heteromorpha • Colisa lalia • Papiliochromis ramirezi • Melanochromis splendida • Megalamphodus sweglesi • Corydoras spec
Only about 30% of the test fish behaved normal. […] The behavioral pattern observed persisted over 48-72 h, i.e. 2-3 days.
In the following tables, the average values of the behavior of all types of fish are represented averaged depending on the time and dose of glyoxal.2NaHSO3: (Comparison: control with 1000 μmol/l of total ammonia without treatment)

[2] = NH3 concentration ranges common in keeping water; cited from earlier work
[3] = Chemical changes in the keeping water (pH, carbonate hardness); format: physicochemical
From the text: The positive effect may originate from the preparation itself, wherein, for example glyoxal.2NaHSO3 acts as a protecting agent in the gill area. The second possibility is an indirect effect by influencing the water chemistry, which again results in a shift of the NH3/NH4^+ equilibrium. Glyoxal-2NaHSO3 causes two different chemical changes in the keeping water:
1. pH reduction by up to 0.5 units, which persists considerably longer than with state of the art preparations and products, for example a reduction by 0.3 pH units up to 72 hours following the dose.
2. […] This surprising chemical behavior, too, is not found with state of the art products or preparations.

[4] = system: fish and other water organisms; experiment: Compatibility of the adduct alone; format: in vivo
Method: The adduct alone is very well compatible for fish and other water organisms up to high concentrations of 140 mg/l.

[5] = Stability of liquid product formulations; format: physicochemical; details: extended pH range between pH 3 and 9

## O=S(=O)([O-])C(O)CCCC(O)S(=O)(=O)[O-].[Na+].[Na+] (centres unmarked) [NaHSO3 bisadduct of glutardialdehyde]
[1]
  reduction of the acute toxicity of ammonia in water animals, in particular ornamental fish: especially effective

## O=S(=O)([O-])CO.[Na+] [sodium hydroxymethanesulfonate]
[2]
  reduction in the ammonia concentration: Neither a reduction in the ammonia concentration
  reduction of the NH3 toxicity: nor a, however disposed, reduction of the NH3 toxicity could be observed

## O=S(=O)([O-])C(O)CO.[Na+] (centres unmarked) [NaHSO3 monoadduct of glycolaldehyde]
[1]
  reduction of the acute toxicity of ammonia in water animals, in particular ornamental fish: show the desired reduction of the acute toxicity of ammonia

## O=S(=O)([O-])C(O)C(O)S(=O)(=O)[O-].[Na+].[Na+] (centres unmarked) [glyoxal•2NaHSO3, NaHSO3 bisadduct of glyoxal]
[3]
  time after which the carbonate hardness reduction sets in: about 24 hours
  time the carbonate hardness reduction lasts: up to 72 hours
[3]; keeping water
  Reduction of the carbonate hardness: 0.5-0.60 dH
[3]; maximum
  pH reduction in the keeping water: up to 0.5 units
[3]; up to 72 hours following the dose
  pH reduction in the keeping water: 0.3 pH units
[4]
  concentration up to which the adduct alone is very well compatible for fish and other water organisms: ≤ 140 µg/mL
[5]
  stability of the liquid product formulations: good stability
[1]; 1000 μmol/l of total ammonia, only about 30% normal without preparation
  behavior of the test fish following addition of the preparation: the majority of the test fish behaved normal and showed no signs of damage by ammonia
[1]; Table A, 35 mg/l single dose, 0 hrs (before dose), 1000 μmol/l total ammonia
  Normal behavior show % of the test fish: 89%
[1]; Table A, 35 mg/l single dose, 2 hrs
  Normal behavior show % of the test fish: 67%
[1]; Table A, 35 mg/l single dose, 5 hrs
  Normal behavior show % of the test fish: 67%
[1]; Table A, 35 mg/l single dose, 9 hrs
  Normal behavior show % of the test fish: 67%
[1]; Table A, 35 mg/l single dose, 23 hrs
  Normal behavior show % of the test fish: 56%
[1]; Table A, 35 mg/l single dose, 29 hrs
  Normal behavior show % of the test fish: 67%
[1]; Table A, 35 mg/l single dose, 46 hrs
  Normal behavior show % of the test fish: 67%
[1]; Table A, 35 mg/l single dose, 54 hrs
  Normal behavior show % of the test fish: 56%
[1]; Table A, 35 mg/l single dose, 72 hrs
  Normal behavior show % of the test fish: 44%
[1]; Table B, 130 mg/l single dose, 0 hrs (before dose), 1000 μmol/l total ammonia
  Normal behavior show % of the test fish: 100%
[1]; Table B, 130 mg/l single dose, 2 hrs
  Normal behavior show % of the test fish: 78%
[1]; Table B, 130 mg/l single dose, 4 hrs
  Normal behavior show % of the test fish: 78%
[1]; Table B, 130 mg/l single dose, 8 hrs
  Normal behavior show % of the test fish: 78%
[1]; Table B, 130 mg/l single dose, 24 hrs
  Normal behavior show % of the test fish: 78%
[1]; Table B, 130 mg/l single dose, 48 hrs
  Normal behavior show % of the test fish: 100%
[1]; Table C, three-time dose 35 mg/l every 72 hours, 0 hrs (before doses)
  Normal behavior show % of the test fish: 100%
[1]; Table C, three-time dose 35 mg/l every 72 hours, 2 hrs
  Normal behavior show % of the test fish: 78%
[1]; Table C, three-time dose 35 mg/l every 72 hours, 4 hrs
  Normal behavior show % of the test fish: 78%
[1]; Table C, three-time dose 35 mg/l every 72 hours, 5 hrs
  Normal behavior show % of the test fish: 78%
[1]; Table C, three-time dose 35 mg/l every 72 hours, 24 hrs
  Normal behavior show % of the test fish: 67%
[1]; Table C, three-time dose 35 mg/l every 72 hours, 72 hrs (before 2nd dose)
  Normal behavior show % of the test fish: 78%
[1]; Table C, three-time dose 35 mg/l every 72 hours, 74 hrs
  Normal behavior show % of the test fish: 67%
[1]; Table C, three-time dose 35 mg/l every 72 hours, 96 hrs
  Normal behavior show % of the test fish: 89%
[1]; Table C, three-time dose 35 mg/l every 72 hours, 5 days after the 3rd dose (i.e. 11 days)
  Normal behavior show % of the test fish: 89%
[1]; Table C, three-time dose 35 mg/l every 72 hours, 120 hrs
  Normal behavior show % of the test fish: 89%
[1]; Table C, three-time dose 35 mg/l every 72 hours, 144 hrs (before 3rd dose)
  Normal behavior show % of the test fish: 89%
[1]; Table C, three-time dose 35 mg/l every 72 hours, 145 hrs
  Normal behavior show % of the test fish: 100%
[1]; Table C, three-time dose 35 mg/l every 72 hours, 168 hrs
  Normal behavior show % of the test fish: 89%
[1]; Table C, three-time dose 35 mg/l every 72 hours, 192 hrs
  Normal behavior show % of the test fish: 100%
[1]; Table D comparison, glyoxal•2NaHSO3 35 mg/l, product doses not given, 0 hrs (before dose)
  Normal behavior show % of the test fish: 89%
[1]; Table D comparison, glyoxal•2NaHSO3 35 mg/l, product doses not given, 2 hrs
  Normal behavior show % of the test fish: 67%
[1]; Table D comparison, glyoxal•2NaHSO3 35 mg/l, product doses not given, 5 hrs
  Normal behavior show % of the test fish: 67%
[1]; Table D comparison, glyoxal•2NaHSO3 35 mg/l, product doses not given, 8.5 hrs
  Normal behavior show % of the test fish: 67%
[1]; Table D comparison, glyoxal•2NaHSO3 35 mg/l, product doses not given, 22.5 hrs
  Normal behavior show % of the test fish: 56%
[1]; Table D comparison, glyoxal•2NaHSO3 35 mg/l, product doses not given, 29 hrs
  Normal behavior show % of the test fish: 67%
[1]; Table D comparison, glyoxal•2NaHSO3 35 mg/l, product doses not given, 46 hrs
  Normal behavior show % of the test fish: 67%
[1]; Table D comparison, glyoxal•2NaHSO3 35 mg/l, product doses not given, 54 hrs
  Normal behavior show % of the test fish: 56%
[1]; Table D comparison, glyoxal•2NaHSO3 35 mg/l, product doses not given, 72 hrs
  Normal behavior show % of the test fish: 44%
[1]; during the first 48 hours, 35 mg/l and 130 mg/l
  percentage of test fish with normal behavior versus control without treatment: significantly higher percentage of the test fish shows normal behavior than in the control test
[1]
  reduction of the acute toxicity of ammonia in water animals, in particular ornamental fish: especially effective
[1]; on addition of 5-140 mg/l, preferably 10-50 mg/l
  acute toxicity of ammonia to fish: clearly reduced
[1]; single dose, 1000 μmol/l of total ammonia
  time over which the behavioral pattern observed persisted: 48 to 72 h

## O=S(=O)([O-])C(O)CC(O)S(=O)(=O)[O-].[Na+].[Na+] (centres unmarked) [NaHSO3 bisadduct of malondialdehyde]
[1]
  reduction of the acute toxicity of ammonia in water animals, in particular ornamental fish: show the desired reduction of the acute toxicity of ammonia

## O=S(=O)([O-])C(O)CCC(O)S(=O)(=O)[O-].[Na+].[Na+] (centres unmarked) [NaHSO3 bisadduct of succindialdehyde]
[1]
  reduction of the acute toxicity of ammonia in water animals, in particular ornamental fish: show the desired reduction of the acute toxicity of ammonia

Source: US8153165B2, “Preparation and use for reducing the damaging effect of ammonia on organisms living in water” (Tetra GmbH, priority 2006, dated 2012)
